In patent US11083709B2, “Compounds, compositions, and methods of increasing CFTR activity” (Proteostasis Therapeutics, Inc., priority 2015, dated 2021):

Columns and labels:
[1] = target: T1, CFTR in G542X/F508del HBEs (Homo sapiens, UniProt P13569, DEL508-508); test: Ussing measurements, G542X/F508del HBEs; type: cell-based; settings: genotype G542X/F508del
T1 construct: endogenous in cells; host or cells: primary lung epithelial cells (hBEs), genotype G542X/F508del
Protocol: As discussed above, Ussing measurements were used to measure CFTR activity. In this method, primary lung epithelial cells (hBEs) with a Cystic fibrosis causing class I mutation were differentiated for a minimum of 4 weeks in an air-liquid interface on SnapWell™ filter plates prior to the Ussing measurements. Cells were apically mucus-washed for 30 minutes prior to treatment with compounds. The basolateral media was removed and replaced with media containing the compound of interest diluted to its final concentration from DMSO or aqueous stocks. Treated cells were incubated at 37° C. and 5% CO2 for 24 hours. […] The short-circuit current was measured in voltage clamp-mode (Vhold=0 mV), and the entire assay was conducted at a temperature of 36° C.-36.5° C. Once the voltages stabilized, the chambers were clamped, and data were recorded by pulse readings every 5 seconds. Following baseline current stabilization, the following additions were applied and the changes in current and resistance of the cells were monitored: • 1. […]
The forskolin-sensitive current and inhibitable current (that potentiated current that was blocked by CFTRinh-172) were measured as the specific activity of the ΔF508-CFTR channel, and increase in response to compound in this activity over that observed in vehicle-treated samples were identified as the correction of ΔF508-CFTR function imparted by the compound tested. […]

[2] = system: CFTR in R117H/F508del HBEs; test: Ussing measurements, R117H/F508del HBEs; type: cell-based, human; settings: genotype R117H/F508del
Protocol: (§1) As discussed above, Ussing measurements was used to measure CFTR activity. In this method, primary lung epithelial cells (hBEs) with a Cystic Fibrosis-causing class III mutation were differentiated for a minimum of 4 weeks in an air-liquid interface on SnapWell™ filter plates prior to the Ussing measurements. Cells were apically mucus-washed for 30 minutes prior to treatment with compounds. The basolateral media was removed and replaced with media containing the compound of interest diluted to its final concentration from DMSO stocks. Treated cells were incubated at 37° C. and 5% CO2 for 24 hours. At the end of the treatment period, the cells on filters were transferred to the Ussing chamber and equilibrated for 30 minutes. The short-circuit current was measured in voltage clamp-mode (Vhold=0 mV), and the entire assay was conducted at a temperature of 36° C.-36.5° C. Once the voltages stabilized, the chambers were clamped, and data was recorded by pulse readings every 5 seconds. Following baseline current stabilization, the following additions were applied and the changes in current and resistance of the cells was monitored: • 1. Benzamil to the apical chamber to inhibit ENaC sodium channel. • 2. Forskolin to both chambers to activate ΔF508-CFTR by phosphorylation. • 3. Ivacaftor or Genistein to the apical chamber to potentiate ΔF508-CFTR channel opening. • 4. CFTRinh-172 to the apical chamber to inhibit ΔF508-CFTR Cl-conductance.
(§2) The forskolin-sensitive current and inhibitable current (that potentiated current that is blocked by CFTRinh-172) were measured as the specific activity of the ΔF508-CFTR channel, and increase in response to compound in this activity over that observed in vehicle-treated samples were identified as the correction of ΔF508-CFTR function imparted by the compound tested.
(§3) The results are shown below in Tables 5 and 6. Compound A is 10 uM and VX-809 is 3 uM and ivacaftor is 1 uM.

[3] = system: CFTR in G551D/F508del HBEs; test: Ussing measurements, G551D/F508del HBEs; type: cell-based, human; settings: genotype G551D/F508del
Protocol: as §1, §2, §3

[4] = system: CFTR, genotype G542X/G542X; test: CFTR activity by mutation type, G542X/G542X (Table 7); type: cell-based, human
[5] = compound A 10uM + ivacaftor 1uM, relative activity of 100% = ivacaftor
[6] = compound A 10uM, relative activity of 100% = ivacaftor (1uM)

T1 sequence (P13569 with tags, fused parts or gaps DEL508-508): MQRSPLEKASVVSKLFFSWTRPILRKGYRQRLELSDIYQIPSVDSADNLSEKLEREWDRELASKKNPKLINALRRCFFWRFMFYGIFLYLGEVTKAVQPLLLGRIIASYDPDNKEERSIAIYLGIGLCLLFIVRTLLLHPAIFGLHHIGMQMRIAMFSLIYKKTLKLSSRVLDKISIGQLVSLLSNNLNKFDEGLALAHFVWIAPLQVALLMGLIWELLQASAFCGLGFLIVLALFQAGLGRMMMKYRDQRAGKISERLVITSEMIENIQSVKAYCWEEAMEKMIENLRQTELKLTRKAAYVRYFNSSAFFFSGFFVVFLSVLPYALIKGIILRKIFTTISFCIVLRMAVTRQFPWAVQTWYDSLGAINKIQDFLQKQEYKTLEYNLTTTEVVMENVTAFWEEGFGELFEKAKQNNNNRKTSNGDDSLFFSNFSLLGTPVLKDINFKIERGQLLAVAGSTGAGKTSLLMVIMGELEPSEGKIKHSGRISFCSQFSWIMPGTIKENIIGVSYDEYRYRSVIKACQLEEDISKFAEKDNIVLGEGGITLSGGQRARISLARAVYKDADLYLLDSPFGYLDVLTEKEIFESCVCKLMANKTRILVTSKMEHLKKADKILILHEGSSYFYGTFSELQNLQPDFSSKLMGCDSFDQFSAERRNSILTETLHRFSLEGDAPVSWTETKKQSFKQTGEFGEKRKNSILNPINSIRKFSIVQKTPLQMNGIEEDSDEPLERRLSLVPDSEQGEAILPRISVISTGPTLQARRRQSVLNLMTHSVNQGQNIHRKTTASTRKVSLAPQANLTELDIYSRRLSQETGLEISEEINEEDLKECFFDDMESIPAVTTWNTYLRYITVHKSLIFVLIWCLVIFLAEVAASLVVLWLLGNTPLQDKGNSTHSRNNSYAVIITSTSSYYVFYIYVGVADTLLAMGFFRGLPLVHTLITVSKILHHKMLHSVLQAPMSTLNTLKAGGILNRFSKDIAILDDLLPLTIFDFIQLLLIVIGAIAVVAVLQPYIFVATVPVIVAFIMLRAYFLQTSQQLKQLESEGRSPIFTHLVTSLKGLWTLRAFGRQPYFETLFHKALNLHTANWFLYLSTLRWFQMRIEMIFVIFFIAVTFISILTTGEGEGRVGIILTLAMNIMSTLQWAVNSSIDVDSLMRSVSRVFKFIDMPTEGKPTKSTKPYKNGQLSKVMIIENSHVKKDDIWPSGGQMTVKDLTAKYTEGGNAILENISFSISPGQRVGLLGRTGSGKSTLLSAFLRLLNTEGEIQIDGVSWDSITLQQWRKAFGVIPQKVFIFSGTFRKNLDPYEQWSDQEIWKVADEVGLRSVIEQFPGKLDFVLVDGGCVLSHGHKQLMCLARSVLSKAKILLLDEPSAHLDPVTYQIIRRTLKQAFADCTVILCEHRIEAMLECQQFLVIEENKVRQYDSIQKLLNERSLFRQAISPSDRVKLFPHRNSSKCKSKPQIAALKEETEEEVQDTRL

C[C@@H](O)c1nnc([C@H]2C[C@H](NC(=O)c3cc(-c4ccccc4)no3)C2)o1 [Example 6, N-(trans-3-(5-((R)-1-hydroxyethyl)-1,3,4-oxadiazol-2-yl)cyclobutyl)-3-phenylisoxazole-5-carboxamide]
Combination with ivacaftor and lumacaftor, activity ([1]; compound A 10uM + ivacaftor 1uM + lumacaftor 3 uM, relative activity of 100% = ivacaftor and lumacaftor): ++++ (++++ indicates activity at 10uM of >150% of the indicated relative activity treatment) | Stand Alone activity ([1]; compound A 10uM, relative activity of 100% = ivacaftor (1uM) and lumacaftor (3 uM)): + (+ indicates activity at 10uM of 15% to <50% of the indicated relative activity treatment) | Combination with ivacaftor, activity [2, 5]: ++++ (++++ indicates activity at 10uM of >150% of the indicated relative activity treatment) | Stand Alone activity [2, 6]: +++ (+++ indicates activity at 10uM of 100% to <150% of the indicated relative activity treatment) | Combination with ivacaftor, activity [3, 5]: ++++ (++++ indicates activity at 10uM of >150% of the indicated relative activity treatment) | Stand Alone activity [3, 6]: + (+ indicates activity at 10uM of 15% to <50% of the indicated relative activity treatment) | Combination with NB124, activity ([4]; compound A 10uM + NB124 250 ug/ml, relative activity of 100% = NB124): ++++ (++++ indicates activity at 10uM of >150% of the indicated relative activity treatment) | Stand Alone activity ([4]; compound A 10uM, relative activity of 100% = NB124 (250 ug/ml)): ++ (++ indicates activity at 10uM of 50% to <100% of the indicated relative activity treatment)
